Experimental data from US20060111341A1, “Use of galanthamine and the derivatives thereof in the production of medicaments” (priority 2003, published 2006).
Read-outs that look alike come from different tables or passages of the source.

Legend:
Acetylcholinesterase [1] = molecular target: T1, Acetylcholinesterase (Homo sapiens, UniProt P22303); experiment: biochemical
Butyrylcholinesterase = Butyrylcholinesterase (Homo sapiens, UniProt P06276); experiment: biochemical
Acetylcholinesterase [2] = molecular target: T1, Acetylcholinesterase
post-operative delirium = experiment: Prospective clinical study for the prevention of post-operative delirium (Confusion Assessment Method); assay type: in vivo, patients
From the text: In order to be able to test the effect of the pharmaceutical forms of the invention on patients, a prospective study was accomplished for the prevention of post-operative delirium at five Austrian orthopedic hospitals (two in Vienna, and one each in Linz, Graz and Krems) and all together 229 patients, who underwent hip replacement and/or combined planned surgical intervention for implantation were part of the study.
Hip/Knee endoprosthesis. The patients of the group were given in the evening following the surgical intervention (day 0) 8 mg galanthamine HCl, then on the days 1 to 4 in each case 4 mg in the morning and at noon and 8 mg in the evening, i.e., 16 mg t.i.d. to the fifth day. […], the dose was reduced to 8 mg b.i.d., starting from that day until the 6th day when no more treatment took place.
For the determination of the effectiveness with the help of the “Confusion Assessment Method” (Lit.14) 155 patients could be consulted. In the group of placebos 7 patients (8, 5%) developed an post-operative delirium, in the galanthamine group only one patient (1, 4%) developed post-operative delirium, which corresponds to a statistically significant difference (p=0, 044).

[3] = test system: medicament-induced delirium; details: one patient, WO 00/32185 A; cited from earlier work

T1 sequence (P22303 32-614): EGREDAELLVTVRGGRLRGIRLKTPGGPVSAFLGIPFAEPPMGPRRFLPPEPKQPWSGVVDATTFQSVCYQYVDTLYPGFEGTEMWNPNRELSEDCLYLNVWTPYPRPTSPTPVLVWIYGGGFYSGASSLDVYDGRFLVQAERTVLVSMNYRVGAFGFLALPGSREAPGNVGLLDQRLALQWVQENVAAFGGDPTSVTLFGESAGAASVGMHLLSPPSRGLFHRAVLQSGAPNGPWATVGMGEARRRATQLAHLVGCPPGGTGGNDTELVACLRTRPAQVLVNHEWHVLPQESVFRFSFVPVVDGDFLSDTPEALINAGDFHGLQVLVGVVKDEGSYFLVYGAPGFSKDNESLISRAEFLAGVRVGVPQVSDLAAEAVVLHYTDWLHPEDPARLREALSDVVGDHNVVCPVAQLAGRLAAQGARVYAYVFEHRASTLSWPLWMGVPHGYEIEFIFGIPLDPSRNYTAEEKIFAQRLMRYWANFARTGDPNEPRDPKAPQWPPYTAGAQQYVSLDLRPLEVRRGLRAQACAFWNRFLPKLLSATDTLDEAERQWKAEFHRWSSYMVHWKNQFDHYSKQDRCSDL
Butyrylcholinesterase, sequence (P06276 29-602): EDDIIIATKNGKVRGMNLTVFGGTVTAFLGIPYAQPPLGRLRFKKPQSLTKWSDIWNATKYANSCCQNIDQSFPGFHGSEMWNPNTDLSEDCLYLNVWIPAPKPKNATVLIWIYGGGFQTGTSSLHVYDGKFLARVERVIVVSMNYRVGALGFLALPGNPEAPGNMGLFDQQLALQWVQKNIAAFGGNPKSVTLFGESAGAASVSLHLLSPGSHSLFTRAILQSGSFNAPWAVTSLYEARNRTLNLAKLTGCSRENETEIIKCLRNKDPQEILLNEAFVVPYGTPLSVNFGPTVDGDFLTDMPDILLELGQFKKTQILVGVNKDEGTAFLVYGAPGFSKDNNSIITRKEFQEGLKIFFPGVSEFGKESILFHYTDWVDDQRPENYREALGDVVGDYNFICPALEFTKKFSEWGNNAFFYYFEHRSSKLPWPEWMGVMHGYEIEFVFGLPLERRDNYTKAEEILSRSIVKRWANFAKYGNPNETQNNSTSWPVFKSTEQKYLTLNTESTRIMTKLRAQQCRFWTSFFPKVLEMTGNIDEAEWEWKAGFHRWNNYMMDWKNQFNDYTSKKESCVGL

Structure (SMILES)	IC50 (Acetylcholinesterase [1]) [µM]	IC50 (Butyrylcholinesterase) [µM]	other results
COc1ccc2c3c1O[C@H]1C[C@@H](O)C=C[C@@]31CCN(CCCO)C2 [Nr 144]	2.8	5	
C=CCCC(=O)N1CC[C@@]23C=C[C@H](O)C[C@@H]2Oc2c(OC)ccc(c23)C1 [Nr 147]	8.4	2.6	
COc1ccc2c3c1O[C@H]1C[C@@H](O)C=C[C@@]31CCN(C1CCN(C(=O)c3ccccc3)CC1)C2 [Nr 148]	24	3	
COc1ccc2c3c1O[C@H]1C[C@@H](O)C=C[C@@]31CCN(C(=S)Oc1ccccc1)C2 [Nr 149]	7.2	> 100	
COc1ccc2c3c1O[C@@H]1C[C@H](O)C=C[C@]31CCN(CCCN1CCCCC1)C2 [Nr 153]	9	23	
COc1cc2c(cc1OC)C(=O)C(CCCCN1CC[C@@]34C=C[C@H](O)C[C@@H]3Oc3c(OC)ccc(c34)C1)C2 (stereo partly drawn) [Nr 154]	0.02	0.8	
CCCN1CC[C@@]23C=C[C@H](O)C[C@@H]2Oc2c(OC)ccc(c23)C1 [Nr 155]	0.3	1.5	
COc1ccc2c(c1)CC(CCCCN1CC[C@@]34C=C[C@H](O)C[C@@H]3Oc3c(OC)ccc(c34)C1)C2=O (stereo partly drawn) [Nr 157]	0.022	0.8	
COc1cc2c(cc1OC)C(=O)C(CCCCCN1CC[C@@]34C=C[C@H](O)C[C@@H]3Oc3c(OC)ccc(c34)C1)C2 (stereo partly drawn) [Nr 158]	0.0052	0.24	
CCOC(=O)NN(CN1CC[C@@]23C=C[C@H](O)C[C@@H]2Oc2c(OC)ccc(c23)C1)C(=O)OCC [Nr 159]	3	> 100	
COc1ccc2c3c1O[C@H]1C[C@@H](O)C=C[C@@]31CCN(CN(NC(=O)OC(C)(C)C)C(=O)OC(C)(C)C)C2 [Nr 160]	3.6	20	
COc1ccc2c3c1O[C@H]1C[C@@H](O)C=C[C@@]31CCN(CCCCN1C(=O)c3ccccc3S1(=O)=O)C2 [Nr 161]	0.022	1.5	
COc1cc2c(cc1OC)C(=O)C(CCCCN1CC[C@@]34C=C[C@H](O)C[C@@H]3Oc3c(OC)ccc(c34)C1)C2 (stereo partly drawn) [Nr 167]			IC50 (Acetylcholinesterase [2]): 0.02 µM
COc1ccc2c3c1O[C@H]1C[C@@H](OC(=S)Nc4ccccc4)C=C[C@@]31CCN(C)C2 [Nr 179]	51	30	
COc1ccc2c3c1O[C@H]1C[C@@H](O)C=C[C@@]31CCN(C(=O)Nc1cccc3ccccc13)C2 [Nr 267]	70	> 100	
COc1cc(Br)c2c3c1O[C@@H]1C[C@H](O)C=C[C@]31CCN(C(=O)CCN1CCCC1)C2 [Nr 271]	> 100	66	
COc1ccc2c3c1O[C@H]1C[C@@H](O)C=C[C@@]31CCN(C)C2 [galanthamine]			patients who developed post-operative delirium (number) (post-operative delirium; hip/knee endoprosthesis patients, oral galanthamine day 0 to 5, Confusion Assessment Method, 155 patients evaluated, placebo 7 patients): one; improvement of the symptoms of acute POD (post-operative delirium; oral administration, patients with limited cognitive ability with acute POD): unexpected and large improvement of the symptoms; observed side effects of galanthamine administration (post-operative delirium; oral administration, post-operative patients): very small; patients who developed post-operative delirium (percent) (post-operative delirium; po, 0 h): 1, 4%
CCN(C)C(=O)Oc1cccc([C@H](C)N(C)C)c1 [rivastigmine]			treatment of delirium after lithium intoxication [3]: successfully treated
